Reference: US20090203877A1, “X-RAY-DENSE CONJUGATE” (Eberhard-Karls-Universitaet Tuebingen Universitaetsklinkum, priority 2006, published 2009)
Entries after “also recorded” stand apart in the source; their conditions may differ.

Columns and labels:
[1] = system: human malignant LN18 glioma cells; experiment: Cell viability / cell death (annexin-V-Alexa 568 binding, propidium iodide, FACS scatter morphology); assay type: cell-based; settings: 260 μM, 20 min, substance alone
Procedure: All measurements were performed on living, non-fixed cells. […] All measurements were performed on living cells. […] All measurements were performed on living cells in triplicates. […] All measurements were performed on living cells.

[2] = system: human malignant U373 glioma cells; experiment: Cell viability / cell death (MTT test, propidium iodide, annexin-V-Alexa 568 binding, FACS scatter morphology); settings: for binding of annexin-V-Alexa 568 reagent (phosphatidyl serine) / cytotoxic effects: 260 μM in 0.1% DMSO/PBS; for binding of annexin-V-Alexa 568 reagent (phosphatidyl serine) / cytotoxic effects / cytotoxic effects / signs of cell death: substance alone; for cytotoxic effects / signs of cell death: 260 μM in PBS
Procedure: Human malignant U373-glioma cells were grown to 70% confluency in RPMI-1640 Ready Mix Medium containing L-Glutamine and 10% FBS-Gold (PAA laboratories, Pasching, Austria) at 37° C., 5% CO2 (vol/vol), in 4-well-plates (NUNC, Wiesbaden, Germany) with about 300,000 cells pro well. […] After this, the cells were washed three times with buffer and then incubated with Ready Mix Medium again. Cell viability was then assessed by the addition of methyl-thiazoyl-tetrazolium (MTT) salt (Sigma-Aldrich, Germany) at a concentration of 15 mg/ml. After 20 minutes, the production of formazan was investigated. When blue formazan granules were detected, propidium iodine (PI) was added to the medium (1 μM PI; Molecular Probes, Eugene, Oreg., USA) to detect cells with damaged cell membranes. […] Pictures were taken with a 3-CCD color video camera (MC3254P, Sony, Japan) and the Axiovision Software (Carl Zeiss, Jena, Germany). The intensity of cell fluorescence was recorded at the exposure time necessary for the production of the fluorescence images.
After imaging, Accutase™ (PAA laboratories, Pasching, Austria) was added to the wells to achieve detachment of the cells for further FACS analysis. Fluorescence was measured in a Becton Dickinson FACSCalibur. A total of 20,000 events per sample were analyzed. The investigations were performed in triplicate.
A sample of cells from each Eppendorf tube was subjected to the MTT test (described under 1.4) to determine microscopically whether the cells were viable. In vitro CT of the cell pellets was performed with a Somatom Sensation 16 (Siemens) which is used for routine clinical investigations.
Cells were incubated for 20 minutes with each of the conjugates dissolved in 0.1% DMSO/PBS at 260 μm. The cells were also incubated with TIBA and both of the non-TIBA-containing conjugates (3 and 4) separately in 0.1% DMSO/OBS at 260 μm. Both TIBA and the conjugates were dissolved in 0.1% DMSO/PBS at 260 μm for incubation due to the insolubility of TIBA (but not the conjugates) in pure PBS. As controls, the cells were incubated with PBS alone, 0.1% DMSO/PBS alone, and TIBA alone (260 μm in 0.1% DMSO/PBS).
The detection of phosphatidyl serine in the outer membrane leaflet of apoptotic cells was performed with the Annexin-V-Alexa™-568-reagent according to manufacturer's protocol (Roche Molecular Biochemicals, Indianapolis, USA). The confocal laser-scanning microscopy was performed on an inverted LSM 510 laser-scanning microscope (Carl Zeiss, Jena, Germany) (objectives: LD Achroplan 40×0.6, Plan Neofluar 20×0.50, 40×0.75). For fluorescence excitation, the 488 nm line of an argon-ion laser and the […] line of a helium-neon laser with appropriate beam splitters and barrier filters were used for FITC and Alexa respectively. Superimposed images of FITC- and Alexa-stained samples were created by overlaying coincident views. All measurements were performed on living, non-fixed cells.
Human malignant LN18 and U373 glioma cells were cultivated in four-well plates (NUNC, Wiesbaden, Germany) (about 300,000 cells per well) as described under 1.5. […] The cells were also coincubated either with CIBA, FIBA or TBPI as well as the NLS-FITC conjugate 3 (each 260 μM). As a control cells were used which were only incubated either with CIBA, FIBA or TBPI (260 μM in PBS) alone. After the incubation the cells were washed three times with PBS and in the following again incubated in Ready Mix Medium. The FITC-labelled conjugates and the Alexa-Annexin for the detection of phosphatidylserine as a signal of the cell death were localized with the confocal laser microscopy (CLSM) as in 1.6.1. All measurements were performed on living cells.

[3] = system: human malignant LN18 glioma cells; experiment: Uptake/staining of cells by FITC-labelled conjugates (CLSM, FACS, semi-thin sections); assay type: cell-based; settings: 20 min; for stained cells: 260 μM in PBS; for nuclear staining of cells (CLSM), in words: 260 μM

| Substance | cell death / vitality (annexin-V-Alexa 568, propidium iodide) [1] | binding of annexin-V-Alexa 568 reagent (phosphatidyl serine) / cytotoxic effects ([2]; 20 min) | cytotoxic effects / signs of cell death ([2]; 20 min) | binding of annexin-V-Alexa 568 reagent / cell viability ([2]; conjugate co-incubated with free TIBA (260 μM)) | cell viability / cell death ([2]; non-TIBA conjugates, 26 μM, 260 μM and 2.6 mM) | stained cells [3] | nuclear staining of cells (CLSM), in words [3] | cell viability (MTT formazan, propidium iodide uptake) ([2]; 26 μM, 20 min) | cellular morphology, side scatter versus forward scatter FACS ([2]; 26 μM, compared to PBS controls) |
| --- | --- | --- | --- | --- | --- | --- | --- | --- | --- |
| PKKKRKVK(FITC)GGK (FITC, GGK linker) [conjugate 3, FITC-labelled correct NLS of the SV 40 T antigen without TIBA] | remain vital; also recorded: did not show any signs of cell death; also recorded: without a sign of cell dead | did not result in binding | did not show any signs of cell death; also recorded: without a sign of cell dead | fails to result in binding; also recorded: did not result in any changes | No cell death | 9% | nuclear staining of few cells; also recorded: does only stain the nucleus of few cells | – | – |
| PKKKRKVK(FITC)GGK(BA) (FITC, GGK linker, benzoic acid) [conjugate 9, FITC-labelled NLS of the SV 40 T antigen with non-iodized benzoic acid] | remain vital; also recorded: no signs of cell death; also recorded: remain viable | – | no signs of cell death | – | – | 9% | nuclear staining of few cells; also recorded: the staining rate did not increase | – | – |
| PKKKRKVK(FITC)GGK(TIBA) (FITC, GGK linker, TIBA) [conjugate 1] | – | binding of annexin-V-Alexa™ 568 reagent was found; also recorded: Most of these cells show the expression of phosphatidyl serine in the outer membrane leaflet | – | – | – | – | – | living cells; also recorded: no signs of cell death | no changes in the cellular morphology |
